For the assay, the target named is T1, Endothelial lipase (EL) (Homo sapiens, UniProt Q9Y5X9).
T1 construct: HT-1080 cells, which were transformed by RAGE technology (Athersys) to overexpress endogenous EL; endogenous in cells; conditioned medium used as the enzyme source
T1 sequence (Q9Y5X9 21-500): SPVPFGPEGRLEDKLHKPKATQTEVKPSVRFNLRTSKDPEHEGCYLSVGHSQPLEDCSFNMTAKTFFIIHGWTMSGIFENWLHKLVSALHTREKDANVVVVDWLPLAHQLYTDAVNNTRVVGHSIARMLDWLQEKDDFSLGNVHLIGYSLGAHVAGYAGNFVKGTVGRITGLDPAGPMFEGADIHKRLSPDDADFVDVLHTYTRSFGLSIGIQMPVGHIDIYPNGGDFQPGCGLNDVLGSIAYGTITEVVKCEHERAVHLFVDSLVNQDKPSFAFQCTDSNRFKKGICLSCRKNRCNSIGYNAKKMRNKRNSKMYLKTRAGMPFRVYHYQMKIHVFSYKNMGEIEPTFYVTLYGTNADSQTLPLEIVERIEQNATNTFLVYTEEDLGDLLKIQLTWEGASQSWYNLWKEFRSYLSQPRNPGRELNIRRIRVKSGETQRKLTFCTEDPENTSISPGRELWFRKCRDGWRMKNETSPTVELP
Briefly: Endothelial lipase (EL) enzymatic assay with fluorescent substrate A10070 in DMPG vesicles. Type of assay: biochemical. In short, it runs like this:
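The enzyme source was conditioned medium from HT-1080 cells engineered to overexpress endogenous EL. It was preincubated with compound for 20 min at 37 °C in 50 mM HEPES pH 8.0, 50 mM NaCl, 1 mM CaCl2. Reactions started with DMPG vesicles carrying FRET substrate A10070 (mole fraction 0.05). The rate was taken from the linear slope of fluorescence (ex 488/em 530 nm) over 10 min.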

[1] abbreviates: range observed in the EL assay, read-out: EL IC50 values.
[2] abbreviates: conditioned media from HT-1080 cells overexpressing endogenous EL, 20 min preincubation at 37° C., read-out: EL IC50.

Like-named read-outs stand apart in the source and are kept apart here.

Usually IC50 stands for the concentration that inhibits the measured activity by half.

Take `O=C(N[C@@H]1CC[C@H](c2ccccc2)C1)c1[nH]c(=O)[nH]c(=O)c1O` [Example 271, 5-Hydroxy-2,6-dioxo-N-((1R,3S)-3-phenylcyclopentyl)-1,2,3,6-tetrahydropyrimidine-4-carboxamide]: the IC50 under setting [1] is no more than 10 µM.

With `Nc1c(C(=O)N[C@@H]2CC[C@H](c3ccc(-c4cccc5ncccc45)cc3)C2)[nH]c(=O)[nH]c1=O` [Example 175, 5-amino-2,6-dioxo-N-((1R,3S)-3-(4-(quinolin-5-yl)phenyl)cyclopentyl)-1,2,3,6-tetrahydropyrimidine-4-carboxamide], the IC50 runs as follows: under setting [2], 0.496 µM; under setting [1], no more than 10 µM.

With `Nc1c(C(=O)N[C@@H]2CCc3cc(Br)ccc32)[nH]c(=O)[nH]c1=O` [Example 65, (R)-5-amino-N-(5-bromo-2,3-dihydro-1H-inden-1-yl)-2,6-dioxo-1,2,3,6-tetrahydropyrimidine-4-carboxamide], the IC50 under setting [1] was no more than 10 µM.

In the case of `Nc1c(C(=O)N[C@@H]2CC[C@@H](C(=O)N[C@H]3CCCc4ccccc43)C2)[nH]c(=O)[nH]c1=O` [Example 146, 5-amino-2,6-dioxo-N-((1R,3R)-3-((S)-1,2,3,4-tetrahydronaphthalen-1-ylcarbamoyl)cyclopentyl)-1,2,3,6-tetrahydropyrimidine-4-carboxamide], the IC50 under setting [1] is no more than 10 µM.

Regarding `Nc1c(C(=O)N[C@@H]2CC[C@H](c3ccccc3)c3ccccc32)[nH]c(=O)[nH]c1=O` [Example 19, 5-amino-2,6-dioxo-N-((1R,4R)-4-phenyl-1,2,3,4-tetrahydronaphthalen-1-yl)-1,2,3,6-tetrahydropyrimidine-4-carboxamide], under setting [1], the IC50 was no more than 10 µM.

Take `Nc1c(C(=O)N[C@H]2CC[C@@H](c3nc(-c4ccc(Cl)c(Cl)c4)no3)CC2)[nH]c(=O)[nH]c1=O` [Example 48, 5-amino-N-(cis-4-(3-(3,4-dichlorophenyl)-1,2,4-oxadiazol-5-yl)cyclohexyl)-2,6-dioxo-1,2,3,6-tetrahydropyrimidine-4-carboxamide]: the IC50 under setting [2] was found to be 0.447 µM and the IC50 under setting [1] is no more than 10 µM.

With `CS(=O)(=O)N1CCC(NC(=O)c2[nH]c(=O)[nH]c(=O)c2N)c2ccccc21` (single isomer, unassigned; enantiomer b) [Example 196, 5-amino-N-(1-(methylsulfonyl)-1,2,3,4-tetrahydroquinolin-4-yl)-2,6-dioxo-1,2,3,6-tetrahydropyrimidine-4-carboxamide (Enantiomer B)], the IC50 under setting [1] was no more than 10 µM.

In the case of `O=C(N[C@H]1CC[C@@H](c2ccccc2)CC1)c1[nH]c(=O)[nH]c(=O)c1NC1CCCC1` [Example 208, 5-(cyclopentylamino)-2,6-dioxo-N-(cis-4-phenylcyclohexyl)-1,2,3,6-tetrahydropyrimidine-4-carboxamide], the IC50 is 0.659 µM under setting [2] and no more than 10 µM under setting [1].

For the compound `Nc1c(C(=O)N[C@@H]2CCCc3cc(NC(=O)c4ccccc4)ccc32)[nH]c(=O)[nH]c1=O` [Example 105, (R)-5-amino-N-(6-benzamido-1,2,3,4-tetrahydronaphthalen-1-yl)-2,6-dioxo-1,2,3,6-tetrahydropyrimidine-4-carboxamide], under setting [1], the IC50 was no more than 10 µM.

For `O=C(N[C@H]1CCc2ccc(OCc3ccccc3)cc21)c1[nH]c(=O)[nH]c(=O)c1O` [Example 259, (S)-N-(6-(benzyloxy)-2,3-dihydro-1H-inden-1-yl)-5-hydroxy-2,6-dioxo-1,2,3,6-tetrahydropyrimidine-4-carboxamide], the IC50 is 0.01 µM under setting [2] and no more than 10 µM under setting [1].

Consider `Nc1c(C(=O)N[C@H]2CC[C@@H](NC(=O)c3ccccc3)CC2)[nH]c(=O)[nH]c1=O` [Example 115, 5-amino-N-(cis-4-benzamidocyclohexyl)-2,6-dioxo-1,2,3,6-tetrahydropyrimidine-4-carboxamide], for which, under setting [1], the concentration for half-maximal inhibition (IC50) is no more than 10 µM.

`COc1cccc2c1C[C@H](NC(=O)c1[nH]c(=O)[nH]c(=O)c1N)CC2` [Example 110, (R)-5-amino-N-(8-methoxy-1,2,3,4-tetrahydronaphthalen-2-yl)-2,6-dioxo-1,2,3,6-tetrahydropyrimidine-4-carboxamide]: under setting [1], the 50% inhibitory concentration (IC50) was no more than 10 µM.

`COc1cccc2c1CCCC2NC(=O)c1[nH]c(=O)[nH]c(=O)c1N` (stereo not shown) [Example 47, 5-amino-N-(5-methoxy-1,2,3,4-tetrahydronaphthalen-1-yl)-2,6-dioxo 1,2,3,6-tetrahydropyrimidine-4-carboxamide]: under setting [1], the half-inhibitory concentration (IC50) was no more than 10 µM.

As for `COC(=O)[C@@H]1C[C@H](NC(=O)c2[nH]c(=O)[nH]c(=O)c2N)c2ccccc21` [Example 12, (1R,3S)-methyl 3-(5-amino-2,6-dioxo-1,2,3,6-tetrahydropyrimidine-4-carboxamido)-2,3-dihydro-1H-indene-1-carboxylate], the IC50 under setting [1] was no more than 10 µM.

With `Nc1c(C(=O)N[C@H]2CC[C@@H](c3cccc(C(F)(F)F)c3)CC2)[nH]c(=O)[nH]c1=O` [Example 30, 5-amino-2,6-dioxo-N-(cis-4-(3-(trifluoromethyl)phenyl)cyclohexyl)-1,2,3,6-tetrahydropyrimidine-4-carboxamide], the IC50 under setting [1] is no more than 10 µM.

With `Nc1c(C(=O)N[C@H]2CCN(c3ccccc3)C2)[nH]c(=O)[nH]c1=O` [Example 192, (S)-5-amino-2,6-dioxo-N-(1-phenylpyrrolidin-3-yl)-1,2,3,6-tetrahydropyrimidine-4-carboxamide], the IC50 under setting [1] was no more than 10 µM.

Take `O=C(N[C@@H]1CC[C@@H](c2ccccc2)C1)c1[nH]c(=O)[nH]c(=O)c1O` [Example 272, 5-hydroxy-2,6-dioxo-N-((1R,3R)-3-phenylcyclopentyl)-1,2,3,6-tetrahydropyrimidine-4-carboxamide]: under setting [1], the IC50 was no more than 10 µM.

Consider `Nc1c(C(=O)N[C@@H]2CCc3cc(OCc4ccccc4)ccc32)[nH]c(=O)[nH]c1=O` [Example 87, (R)-5-amino-N-(5-(benzyloxy)-2,3-dihydro-1H-inden-1-yl)-2,6-dioxo-1,2,3,6-tetrahydropyrimidine-4-carboxamide], for which, under setting [1], the IC50 is no more than 10 µM.

The values above are taken from patent US9199946B2, “Pyrimidinone carboxamide inhibitors of endothelial lipase” (BRISTOL-MYERS SQUIBB COMPANY, priority 2012, dated 2015).
